The results in this text go back to patent EP4700040A1, “PEPTIDE AND LUMINESCENT COMPLEX CONTAINING SAME” (Shenzhen Loggene Life Science & Technology Co., Ltd., priority 2023, dated 2024).

Format in all cases: biochemical, human
Test [1] deals with PCT. Kind of test: Luciferase dual-antibody complementary activation assay for PCT detection, clone supernatants, retest with CTZ-h (Example 1). The note with it: for Signal-to-noise ratio: RLU antigen+/RLU antigen-, MBP-PCT 3.3 ng/ml, CTZ-h; for PCT+: luminescence signal value with MBP-PCT 3.3 ng/ml, large subunit-rSCFV5 50 nM, supernatant; for PCT+ / PCT-: retest CTZ-h 25 µM, read after 60 s; for PCT-: luminescence signal value, background control PBSAD without PCT. On the procedure:
In order to improve the signal-to-noise ratio and complementary activity of the luciferase dual-antibody complementary activation assay, a series of complementary luciferase small subunits were prepared in this example. Large subunit-rSCFV5 fusion protein (SEQ ID NO: 87) was kept unchanged, and the small subunit sequence of the rSCFV18-small subunit P114 fusion protein (SEQ ID NO: 88) was modified by semi-randomization to prepare rSCFV18-small subunit mutant fusion proteins. Based on the sequence of small subunit P114, and with reference to the 3D structure of complementary luciferase, computer-aided sequence design was employed to generate a library with a theoretical diversity of 2.49*10^6. Primers were designed for PCR amplification using the plasmid pComb3x of rSCFV18-small subunit P114 fusion protein as a template. Subsequently, an expression vector library was constructed by means of restriction digestion and ligation (SfiI, NheI), and a semi-random amino acid mutation library was introduced into the small subunit position and transformed into HB2151 competent cells, yielding a library capacity of 7.6*10^9. The 100 plates were spread, and 9,500 single clones were picked and inoculated into 600 µL of 2YTA medium, followed by incubation at 37°C with shaking at 250 rpm for 2 h. When the bacterial density reached approximately OD600 = 0.6~1.0, IPTG was then added to a final concentration of 1 mM, and the culture was further incubated at 30°C with shaking at 250 rpm for 20 h. The next day, the bacteria were collected by centrifugation at 4°C, 4,500g for 10min. The supernatant was discarded, and the precipitate was resuspended with 200µl of PBS containing polymyxin B at a final concentration of 20,000 u/ml. The suspension was incubated at room temperature with shaking at 100rpm for 1h, and then centrifuged at 4500g for 10min, and the supernatant was used for the test.
Test Methods: • (1) The concentration of large subunit-rSCFV5 fusion protein was diluted to 50 nM, and 15 µl was added per well; • (2) MBP-PCT fusion protein was diluted to 3.3 ng/ml with PBSAD, and 15 µl was added per well. The background control was PBSAD, and 10 µl was added per well; • (3) HB2151 strain containing expression plasmids with different small subunit were induced by 1 mM of IPTG at 30°C overnight, then treated with polymyxin B for 1.5 h, and centrifuged to collect the supernatant, and 2.5 µl supernatant was added per well; • (4) The above three components were slightly mixed, incubated at 37°C for 7 min, and Obuffer 6.37-3 containing Furimazine at a concentration of 25 µM was added, and after 80 s, the luminescence signal value was detected using a bioluminescence detector; and • (5) Clones with RLU higher than 10,000 and a signal-to-noise ratio (RLU antigen+/RLU antigen-) higher than that of the rSCFV18-small subunit P114 fusion protein were selected for retesting. The substrate was replaced with CTZ-h for retesting. Obuffer 6.37-3 containing CTZ-h at a concentration of 25 µM was added, and after 60 s, the luminescence signal value was detected using a bioluminescence detector.

Test [2] relates to PCT. Kind of test: Complementation of purified rSCFV18-small subunit mutant fusion protein with large subunit-rSCFV5 fusion protein, PCT gradient (Example 2). The note with it: for luminescence value: CTZ-h 25 µM, 20 s; for Signal-to-noise ratio at 1000 pg/ml: PCT 1000 pg/ml versus 0. As to the method:
Protein expression and purification of small subunit mutants: The strains containing plasmids of different small subunits inTable 2, prepared in Example 1, were inoculated into 200ml of 2YTA medium and cultured at 37°C with shaking at 250 rpm for about 3h. When the OD600 reached 1.0, IPTG was added to a final concentration of 1mM, and the culture was further incubated at 30°C with shaking at 250rpm for 20h. The culture were centrifuged at 5,000g for 10min, and the precipitate was resuspended with 10ml of PBS, added with polymyxin B to 20,000u/ml. The suspension was inverted and mixed at room temperature for 1h, and centrifuged at 10,000g to collect the supernatant. The rSCFV18-small subunit mutant fusion protein was purified according to the standard procedure for his-tag protein purification using Ni-NTA resin.
In the same tube, the large subunit-rSCFV5 fusion protein was diluted with PBSA to 50 nM; rSCFV18-small subunit mutant fusion protein was diluted to 90 nM, mixed well, and then 22 µl was added per well; the MBP-PCT fusion protein was diluted in 3-fold gradient with PBSAD (in pg/ml), with 8 gradients in total, 10µl was added per well, and the background control was PBSAD and 10 µl was added per well; the plate was mixed with slight shaking and incubated at 37°C for 6 min, 50 µl of Obuffer 6.37-3 containing 25 µM of CTZ-h then was added, and after 20 s, the luminescence value was detected.

Test [3] relates to PCT. Kind of test: Signal-to-noise ratio and linear range for PCT detection, purified fusion proteins (Example 3). On the set-up: key to luminescence value: luminescence normalized against the background value. The note with it: for Signal-to-noise ratio at 1000 pg/ml: large subunit 100 nM, small subunit fusion 180 nM, CTZ-h 25 µM, 140 s; for signal-to-noise ratios in luciferase dual-antibody complementary activation for PCT detection: statement in words on Table 3 and Figure 2. On the procedure:
Test Methods: • (1) MBP-PCT protein was diluted with PBSAD in 10-fold gradient starting from 100 ng/ml, with 8 gradients in total, and 10 µl was added per well; • (2) The large subunit-SCFV5 fusion protein was diluted with PBSA to 100 nM, and 10 µl was added per well; • (3) Different rSCFV18-small subunit mutant fusion proteins were diluted with PBSA to 180 nM, and 10 µl of each was added per well; • (4) The plate was mixed slightly and incubated at 37°C for 10 min; and • (5) 50 µl of Obuffer 6.37-3 containing 25 µM of CTZ-h was added, and after 140 s, the luminescence value was detected. The results are shown after normalization against the background value.

Test [4] deals with PCT. Described as above. The note with it: PCT 3.3 (pg/ml); normalized against the background value. Details: key: luminescence normalized against the background value.
Where [5] appears, read: PCT 0 pg/ml (background control PBSAD).
Where [6] appears, read: PCT 1000 pg/ml, large subunit 50 nM, small subunit fusion 90 nM.
[7] abbreviates: PCT 100 (pg/ml), normalized against the background value.
[8] abbreviates: PCT 1000 (pg/ml), normalized against the background value.
[9] abbreviates: PCT 10000 (pg/ml), normalized against the background value.
Where [10] appears, read: PCT 100000 (pg/ml), normalized against the background value.

Turning to VEGWRLHEKIS [RA116], the Signal-to-noise ratio in test [1] is given as 45.5. Besides, the “PCT+” value in test [1] is 55957. In test [1], this sequence gave a PCT- of 1204. The luminescence value in test [2] (setting [5]) is given as 362; in test [2] (PCT 1.37 pg/ml), 406; in test [2] (PCT 4.12 pg/ml), 473; in test [2] (PCT 12.35 pg/ml), 602; in test [2] (PCT 37.04 pg/ml), 1212; in test [2] (PCT 111.1 pg/ml), 2700. Further, the luminescence value in test [2] (PCT 333.3 pg/ml) amounted to 7341; in test [2] (setting [6]), 20492; in test [3] (PCT 0, background, normalized) it was 5000; in test [3] (setting [7]), 11673; in test [3] (setting [8]), 69976; in test [3] (setting [9]), 515360. Moreover, the luminescence value in test [3] (setting [10]) turned out to be 1784513; in test [4] it was 5301. Also, the entries for the “Signal-to-noise ratio at 1000 pg/ml” value in test [2] and in test [3] were 56.6 and 14.0, respectively. The “signal-to-noise ratios in luciferase dual-antibody complementary activation for PCT detection” value (“signal-to-noise ratios” below) in test [3] is “higher signal-to-noise ratios”.
Turning to VEGYRLFDRKL [RB135], the Signal-to-noise ratio in test [1] came to 43.7. Besides, the “PCT+” value in test [1] came to 35245. This sequence came in with a PCT- in test [1] of 788. Moreover, the luminescence value is reported as 380 in test [2] (setting [5]); 367 in test [2] (PCT 1.37 pg/ml); 422 in test [2] (PCT 4.12 pg/ml); 575 in test [2] (PCT 12.35 pg/ml); 943 in test [2] (PCT 37.04 pg/ml); 2137 in test [2] (PCT 111.1 pg/ml). The luminescence value in test [2] (PCT 333.3 pg/ml) worked out at 5480; in test [2] (setting [6]), 15181; in test [3] (PCT 0, background, normalized), 5000; in test [3] (setting [7]), 11916; in test [3] (setting [8]), 67860; in test [3] (setting [9]), 536667. The luminescence value was determined as 1936894 in test [3] (setting [10]) and 5698 in test [4]. The “Signal-to-noise ratio at 1000 pg/ml” value in test [2] came out at 40.0; in test [3], 13.6.
For the sequence VEGYRLFEKVW [RB085], in test [1], the Signal-to-noise ratio is 38.2. For the same sequence, in test [1], the “PCT+” value amounted to 47227. For the same sequence, in test [1], the PCT- is recorded as 1206. The luminescence value turned out to be 337 in test [2] (setting [5]); 384 in test [2] (PCT 1.37 pg/ml); 445 in test [2] (PCT 4.12 pg/ml); 556 in test [2] (PCT 12.35 pg/ml); 932 in test [2] (PCT 37.04 pg/ml); 2102 in test [2] (PCT 111.1 pg/ml). In addition, the luminescence value was 5551 in test [2] (PCT 333.3 pg/ml); 15446 in test [2] (setting [6]); 5000 in test [3] (PCT 0, background, normalized); 11950 in test [3] (setting [7]); 69595 in test [3] (setting [8]); 554514 in test [3] (setting [9]). In addition, the values for the luminescence value in test [3] (setting [10]) and in test [4] were 1830312 and 5486, respectively. For the same sequence, the “Signal-to-noise ratio at 1000 pg/ml” value in test [2] is on record as 45.8; in test [3], 13.9. For the same sequence, in test [3], the “signal-to-noise ratios” value was “higher signal-to-noise ratios”.
On to VEGYRLFDKKW [RB239], for which the Signal-to-noise ratio in test [1] was 67.7. Besides, the “PCT+” value in test [1] was 31936. The same sequence had a PCT- in test [1] of 465. In addition, the luminescence value in test [2] (setting [5]) is on record as 288; in test [2] (PCT 1.37 pg/ml), 301; in test [2] (PCT 4.12 pg/ml) it was 332; in test [2] (PCT 12.35 pg/ml), 407; in test [2] (PCT 37.04 pg/ml) it was 590; in test [2] (PCT 111.1 pg/ml), 1318. Moreover, the luminescence value was found to be 3364 in test [2] (PCT 333.3 pg/ml); 8952 in test [2] (setting [6]); 5000 in test [3] (PCT 0, background, normalized); 11004 in test [3] (setting [7]); 57648 in test [3] (setting [8]); 466004 in test [3] (setting [9]). The luminescence value in test [3] (setting [10]) is given as 2167580; in test [4], 5622. Further, the entries for the “Signal-to-noise ratio at 1000 pg/ml” value in test [2] and in test [3] were 31.1 and 11.5, respectively. Moreover, in test [3], the “signal-to-noise ratios” value is on record as “higher signal-to-noise ratios”.
